Data published in ChEMBL document CHEMBL1201862, “PubChem BioAssay data set” (2004).
Active and inactive are the calls of the source.

Columns and labels:
[1] = biological target: Mucolipin-3 (Homo sapiens, UniProt Q8TDD5); assay: Dose response cell-based high-throughput screening assay for agonists of the transient receptor potential channel ML3 (TRPML3). [Related pubchem assays: 1526, 1424, 1448 ]; format: functional
[2] = growth suppression of PTEN-null colon cells, dose response, cell-based, HCT116 PTEN knockout (AID 1047); format: functional;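 note: HCT116 colon tumor cells with PTEN knocked out; cells exposed to compound for 60 hours before readout; potency for loss of cell viability measured by luminescence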
[3] = growth suppression of beta-catenin-knockout colon cells, dose response, cell-based, HCT116, human colon tumor (AID 1045); format: functional;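 note: HCT116 colon tumor cells with beta catenin knocked out; cells exposed to compound for 60 hours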
[4] = biological target: Ion channel NompC (Danio rerio, UniProt Q7T1G6); assay: Fluorescence counterscreen assay for TRPML3 agonists: dose response cell-based high-throughput screening assay to identify agonists of the transient receptor potential channel N1 (TRPN1). [Related pubchem assays: 1526, 1424, 1448 ]; format: functional
Sequence of Ion channel NompC (Q7T1G6 whole entry): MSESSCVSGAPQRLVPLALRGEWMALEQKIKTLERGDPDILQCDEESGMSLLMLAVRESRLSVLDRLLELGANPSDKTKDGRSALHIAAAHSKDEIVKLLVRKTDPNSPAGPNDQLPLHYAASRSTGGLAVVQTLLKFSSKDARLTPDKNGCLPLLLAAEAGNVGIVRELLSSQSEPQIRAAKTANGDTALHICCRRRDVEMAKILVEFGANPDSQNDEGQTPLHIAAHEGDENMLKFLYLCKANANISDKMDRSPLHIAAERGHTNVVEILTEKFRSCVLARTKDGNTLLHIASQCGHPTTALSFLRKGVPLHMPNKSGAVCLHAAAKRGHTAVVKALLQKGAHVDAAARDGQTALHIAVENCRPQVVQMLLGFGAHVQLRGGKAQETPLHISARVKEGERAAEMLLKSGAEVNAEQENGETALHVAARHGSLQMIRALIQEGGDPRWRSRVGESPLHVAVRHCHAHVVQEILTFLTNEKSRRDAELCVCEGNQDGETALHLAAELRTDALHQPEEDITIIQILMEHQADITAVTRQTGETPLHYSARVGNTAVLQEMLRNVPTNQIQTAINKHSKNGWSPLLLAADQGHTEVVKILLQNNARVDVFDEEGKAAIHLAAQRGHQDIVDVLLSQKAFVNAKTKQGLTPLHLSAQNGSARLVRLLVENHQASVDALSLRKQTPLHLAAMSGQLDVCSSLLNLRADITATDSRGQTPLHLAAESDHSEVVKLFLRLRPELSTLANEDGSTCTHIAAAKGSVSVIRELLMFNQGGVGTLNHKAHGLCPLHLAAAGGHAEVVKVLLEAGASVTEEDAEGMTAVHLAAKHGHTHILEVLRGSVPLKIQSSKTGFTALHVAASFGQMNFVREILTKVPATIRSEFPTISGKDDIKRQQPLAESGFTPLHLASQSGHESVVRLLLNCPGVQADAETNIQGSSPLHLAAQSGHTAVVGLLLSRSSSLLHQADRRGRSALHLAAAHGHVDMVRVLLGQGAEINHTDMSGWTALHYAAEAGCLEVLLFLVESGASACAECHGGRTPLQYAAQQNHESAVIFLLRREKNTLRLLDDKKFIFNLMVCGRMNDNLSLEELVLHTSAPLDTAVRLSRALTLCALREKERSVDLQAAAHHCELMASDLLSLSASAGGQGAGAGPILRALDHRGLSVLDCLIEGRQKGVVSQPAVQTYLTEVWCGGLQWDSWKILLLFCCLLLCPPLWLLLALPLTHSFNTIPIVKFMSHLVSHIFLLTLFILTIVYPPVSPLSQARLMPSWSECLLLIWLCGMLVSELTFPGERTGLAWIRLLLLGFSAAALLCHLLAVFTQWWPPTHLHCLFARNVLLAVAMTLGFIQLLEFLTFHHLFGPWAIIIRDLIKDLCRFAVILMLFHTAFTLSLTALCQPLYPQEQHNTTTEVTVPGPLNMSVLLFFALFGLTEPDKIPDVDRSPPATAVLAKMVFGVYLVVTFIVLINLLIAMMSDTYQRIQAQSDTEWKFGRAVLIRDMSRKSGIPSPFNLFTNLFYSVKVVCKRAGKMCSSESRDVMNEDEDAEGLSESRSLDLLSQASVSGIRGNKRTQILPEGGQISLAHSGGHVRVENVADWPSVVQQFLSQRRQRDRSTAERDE

[5] = A High Throughput Confirmatory Assay used to Identify Novel Compounds that Inhibit Mycobacterium Tuberculosis in the absence of Glycerol.; format: functional
[6] = tested on: Escherichia coli; assay: microbe, parasite or virus in culture
[7] = biological target: Serine/threonine-protein phosphatase PP1-alpha catalytic subunit (Homo sapiens, UniProt P62136); assay: PP1 phosphatase inhibitors, dose response, biochemical, fluorescence (AID 2403);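 note: phosphatase turnover of OMFP into fluorescent 3-O-methylfluorescein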
Sequence of Serine/threonine-protein phosphatase PP1-alpha catalytic subunit (P62136 whole entry): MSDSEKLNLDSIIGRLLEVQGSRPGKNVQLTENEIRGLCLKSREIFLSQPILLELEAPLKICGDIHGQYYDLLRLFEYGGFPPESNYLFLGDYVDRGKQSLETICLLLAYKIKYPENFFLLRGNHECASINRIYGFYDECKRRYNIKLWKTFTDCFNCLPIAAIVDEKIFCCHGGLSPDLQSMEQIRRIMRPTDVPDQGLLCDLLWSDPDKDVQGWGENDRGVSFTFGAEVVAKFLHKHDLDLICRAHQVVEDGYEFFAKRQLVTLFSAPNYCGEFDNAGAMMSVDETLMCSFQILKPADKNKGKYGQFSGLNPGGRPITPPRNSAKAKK

[8] = biological target: Serine/threonine-protein phosphatase (Homo sapiens, UniProt Q9BPW0); assay: Counterscreen for inhibitors of PP1: fluorescence-based biochemical high throughput dose response assay to identify inhibitors of Protein Phosphatase 5 (PP5). [Related pubchem assays: 2034 (Summary (PP5 inhibitors)), 1987 (PP5 inhibitors in singlate), 2235 (PP1 inhibitors in singlate)]
Sequence of Serine/threonine-protein phosphatase (Q9BPW0 whole entry): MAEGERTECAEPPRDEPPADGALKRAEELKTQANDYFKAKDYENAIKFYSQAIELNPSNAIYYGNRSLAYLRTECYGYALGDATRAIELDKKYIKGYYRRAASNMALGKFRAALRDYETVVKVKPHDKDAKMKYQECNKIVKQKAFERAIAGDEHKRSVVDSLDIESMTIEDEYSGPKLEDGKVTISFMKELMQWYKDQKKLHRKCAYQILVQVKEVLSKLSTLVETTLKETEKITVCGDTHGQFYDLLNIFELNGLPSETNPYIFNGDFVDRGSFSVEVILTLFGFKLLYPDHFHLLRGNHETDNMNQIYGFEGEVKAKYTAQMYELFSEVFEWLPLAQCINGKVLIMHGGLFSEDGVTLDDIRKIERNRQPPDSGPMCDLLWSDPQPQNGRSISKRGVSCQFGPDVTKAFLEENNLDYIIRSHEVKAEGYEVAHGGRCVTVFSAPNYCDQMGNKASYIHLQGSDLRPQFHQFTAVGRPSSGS

[9] = tested on: HEK293; assay: NOD1 signaling inhibitors, primary screen, cell-based, luminescence, uHTS (AID 1578); format: functional; details: Homo sapiens
[10] = tested on: HEK293; assay: cells; format: functional, cell-based; details: Homo sapiens
[11] = tested on: HEK293; assay: cells; format: functional, cell-based; details: Homo sapiens; remark: listed apart in the source
[12] = biological target: T1, Bcl-2-like protein 10 (Homo sapiens, UniProt Q9HD36); assay: Biochemical TR3 FP assay of Bcl-B inhibitor potency, EC50 (AID 1243); format: functional
T1 sequence (Q9HD36 whole entry): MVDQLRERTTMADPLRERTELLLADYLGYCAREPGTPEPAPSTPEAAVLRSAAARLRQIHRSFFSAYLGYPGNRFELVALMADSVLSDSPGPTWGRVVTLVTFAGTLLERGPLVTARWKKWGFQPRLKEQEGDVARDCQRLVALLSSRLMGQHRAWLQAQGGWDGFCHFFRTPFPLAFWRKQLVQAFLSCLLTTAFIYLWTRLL

[13] = tested on: HEK293; assay: NOD2 signaling inhibitors in MDP-stimulated cells, cell-based, uHTS, luminescence (AID 2001); format: functional; details: Homo sapiens
[14] = tested on: HEK293; assay: Fluorescence-based counterscreen for potentiators or agonists of NPY-Y2: cell-based high-throughput dose response assay to identify inhibitors of cyclic nucleotide gated ion channel (CNGC) activity. In this assay, the parental HEK293 cell line transfected with a cyclic-nucleotide gated ion channel (CNGC)-based cAMP sensor is used to measure inhibition of isoproterenol-induced CNGC activity by test compound.; format: functional; details: Homo sapiens
[15] = biological target: T2, Neuropeptide Y receptor type 2 (Homo sapiens, UniProt P49146); assay: Fluorescence-based cell-based high-throughput dose response assay for agonists of NPY-Y2. [Related pubchem assays: 1703 (Screening assay (CNGC inhibitors).), 1359 (Screening assay (NPY-Y2 potentiators or agonists).), 1304 (Screening assay (NPY-Y1 potentiators or agonists).), 1710 (Screening assay (NPY-Y2 agonists).), 1791 (Summary AID.)]; format: functional
T2 sequence (P49146 whole entry): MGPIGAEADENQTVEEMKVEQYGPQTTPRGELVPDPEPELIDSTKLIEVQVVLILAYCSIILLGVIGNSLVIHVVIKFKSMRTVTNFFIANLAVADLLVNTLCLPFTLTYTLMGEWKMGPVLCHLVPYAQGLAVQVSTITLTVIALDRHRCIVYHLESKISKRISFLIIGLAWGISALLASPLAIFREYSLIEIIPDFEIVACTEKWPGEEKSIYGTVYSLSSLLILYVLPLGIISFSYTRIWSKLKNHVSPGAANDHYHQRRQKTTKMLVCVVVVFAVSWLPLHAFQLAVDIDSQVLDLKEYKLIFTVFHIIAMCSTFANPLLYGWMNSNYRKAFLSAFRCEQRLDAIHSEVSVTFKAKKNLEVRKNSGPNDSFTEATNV

[16] = biological target: T3, Neuropeptide Y receptor type 1 (Homo sapiens, UniProt P25929); assay: Fluorescence-based counterscreen for agonists of NPY-Y2: cell-based high-throughput dose response assay for agonists of NPY-Y1.; format: functional
T3 sequence (P25929 whole entry): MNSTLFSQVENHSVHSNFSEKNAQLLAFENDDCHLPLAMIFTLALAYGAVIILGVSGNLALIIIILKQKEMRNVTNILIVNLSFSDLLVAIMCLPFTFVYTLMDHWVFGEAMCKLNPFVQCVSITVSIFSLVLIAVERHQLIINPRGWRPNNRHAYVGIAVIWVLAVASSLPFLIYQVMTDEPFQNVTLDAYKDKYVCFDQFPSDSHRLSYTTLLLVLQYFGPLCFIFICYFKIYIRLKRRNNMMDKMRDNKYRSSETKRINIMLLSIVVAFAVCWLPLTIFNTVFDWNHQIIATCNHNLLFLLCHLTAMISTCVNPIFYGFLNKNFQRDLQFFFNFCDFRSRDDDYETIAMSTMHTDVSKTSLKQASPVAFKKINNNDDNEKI

[17] = biological target: Cytochrome P450 2D6 (Homo sapiens, UniProt P10635);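 note: CYP2D6 member of a cytochrome P450 panel assay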
Sequence of Cytochrome P450 2D6 (P10635 whole entry): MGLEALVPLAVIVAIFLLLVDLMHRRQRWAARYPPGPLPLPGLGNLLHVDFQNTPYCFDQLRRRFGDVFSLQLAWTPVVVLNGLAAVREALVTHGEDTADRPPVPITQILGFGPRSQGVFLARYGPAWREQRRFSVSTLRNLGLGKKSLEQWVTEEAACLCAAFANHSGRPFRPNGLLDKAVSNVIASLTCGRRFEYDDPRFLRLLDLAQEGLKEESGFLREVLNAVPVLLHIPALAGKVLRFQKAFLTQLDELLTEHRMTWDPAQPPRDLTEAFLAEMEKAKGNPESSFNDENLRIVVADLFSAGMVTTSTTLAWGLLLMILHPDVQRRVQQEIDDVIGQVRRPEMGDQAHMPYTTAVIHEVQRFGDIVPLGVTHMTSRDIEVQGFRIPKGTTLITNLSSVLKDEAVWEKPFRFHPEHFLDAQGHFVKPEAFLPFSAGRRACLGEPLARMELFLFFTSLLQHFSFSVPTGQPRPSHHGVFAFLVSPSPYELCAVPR

[18] = biological target: T3, Neuropeptide Y receptor type 1; format: functional
[19] = biological target: T2, Neuropeptide Y receptor type 2; format: functional, cell-based
[20] = biological target: Melanocortin receptor 4 (Homo sapiens, UniProt P32245); assay: MC4R antagonist potency on cAMP, dose response, cell-based, TR-FRET, biased antagonists (AID 602298); format: functional;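 note: antagonist potency against agonist-stimulated cAMP production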
Sequence of Melanocortin receptor 4 (P32245 whole entry): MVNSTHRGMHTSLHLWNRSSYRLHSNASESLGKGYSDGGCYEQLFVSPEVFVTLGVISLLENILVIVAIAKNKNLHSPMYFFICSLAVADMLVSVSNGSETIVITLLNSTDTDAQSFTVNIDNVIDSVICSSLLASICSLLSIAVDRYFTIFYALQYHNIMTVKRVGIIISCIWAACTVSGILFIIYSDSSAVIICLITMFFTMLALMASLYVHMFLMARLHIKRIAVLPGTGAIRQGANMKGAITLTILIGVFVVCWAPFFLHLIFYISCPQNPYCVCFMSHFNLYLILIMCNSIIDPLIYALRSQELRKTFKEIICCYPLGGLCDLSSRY

[21] = nonselective inhibitors of cellular cAMP signaling, dose response, counter-screen for MC4R biased antagonist project, cell-based, TR-FRET cAMP detection (AID 602305); format: functional;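 note: U2OS cells stimulated with forskolin near its EC80 as the cAMP inducer; potency is for inhibition of forskolin-stimulated cAMP signaling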
[22] = biological target: T4, Estrogen receptor (Homo sapiens, UniProt P03372); assay: potentiators of ERα–SRC-1 coactivator binding, dose response, biochemical, TR-FRET, ERα LBD (AID 737)
T4 sequence (P03372 whole entry): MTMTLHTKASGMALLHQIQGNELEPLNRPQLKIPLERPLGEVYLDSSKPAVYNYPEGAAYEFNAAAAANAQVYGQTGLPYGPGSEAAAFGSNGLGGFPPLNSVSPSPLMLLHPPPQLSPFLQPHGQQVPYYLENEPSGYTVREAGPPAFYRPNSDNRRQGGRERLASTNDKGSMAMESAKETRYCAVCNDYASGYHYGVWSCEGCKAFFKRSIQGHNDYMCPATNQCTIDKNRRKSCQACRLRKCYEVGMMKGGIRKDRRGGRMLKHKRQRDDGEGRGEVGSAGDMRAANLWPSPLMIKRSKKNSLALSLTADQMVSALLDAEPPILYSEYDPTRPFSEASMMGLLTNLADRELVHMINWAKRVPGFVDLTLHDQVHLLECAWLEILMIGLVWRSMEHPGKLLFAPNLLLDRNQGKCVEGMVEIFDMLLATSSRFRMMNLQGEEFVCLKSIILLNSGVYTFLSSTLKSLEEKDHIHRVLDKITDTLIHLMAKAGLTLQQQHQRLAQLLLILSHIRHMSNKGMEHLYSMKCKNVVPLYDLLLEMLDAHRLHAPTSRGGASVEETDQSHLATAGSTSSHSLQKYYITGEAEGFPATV

[23] = biological target: T5, Mannose-6-phosphate isomerase (Homo sapiens, UniProt P34949); assay: inhibitors of human PMI, primary screen, biochemical, fluorescence intensity, coupled assay (AID 1209)
T5 sequence (P34949 whole entry): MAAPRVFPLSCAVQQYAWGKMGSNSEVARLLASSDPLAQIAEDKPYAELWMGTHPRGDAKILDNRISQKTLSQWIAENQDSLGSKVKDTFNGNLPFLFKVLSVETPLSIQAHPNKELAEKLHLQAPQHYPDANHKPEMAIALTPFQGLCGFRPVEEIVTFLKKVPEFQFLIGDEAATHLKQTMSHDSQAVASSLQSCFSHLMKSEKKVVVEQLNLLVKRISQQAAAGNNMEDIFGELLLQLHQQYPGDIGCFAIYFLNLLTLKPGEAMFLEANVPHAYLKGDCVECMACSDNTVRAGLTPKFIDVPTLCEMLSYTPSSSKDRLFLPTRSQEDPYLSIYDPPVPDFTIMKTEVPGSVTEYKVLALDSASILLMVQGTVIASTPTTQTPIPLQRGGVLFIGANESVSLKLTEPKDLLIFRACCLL

[24] = biological target: T5, Mannose-6-phosphate isomerase; assay: human PMI inhibitors, high substrate, primary screen, biochemical, fluorescence intensity, high mannose 6-phosphate (AID 1220)
[25] = biological target: T6, Histone-lysine N-methyltransferase NSD2 (Homo sapiens, UniProt O96028); format: biochemical
T6 sequence (O96028 whole entry): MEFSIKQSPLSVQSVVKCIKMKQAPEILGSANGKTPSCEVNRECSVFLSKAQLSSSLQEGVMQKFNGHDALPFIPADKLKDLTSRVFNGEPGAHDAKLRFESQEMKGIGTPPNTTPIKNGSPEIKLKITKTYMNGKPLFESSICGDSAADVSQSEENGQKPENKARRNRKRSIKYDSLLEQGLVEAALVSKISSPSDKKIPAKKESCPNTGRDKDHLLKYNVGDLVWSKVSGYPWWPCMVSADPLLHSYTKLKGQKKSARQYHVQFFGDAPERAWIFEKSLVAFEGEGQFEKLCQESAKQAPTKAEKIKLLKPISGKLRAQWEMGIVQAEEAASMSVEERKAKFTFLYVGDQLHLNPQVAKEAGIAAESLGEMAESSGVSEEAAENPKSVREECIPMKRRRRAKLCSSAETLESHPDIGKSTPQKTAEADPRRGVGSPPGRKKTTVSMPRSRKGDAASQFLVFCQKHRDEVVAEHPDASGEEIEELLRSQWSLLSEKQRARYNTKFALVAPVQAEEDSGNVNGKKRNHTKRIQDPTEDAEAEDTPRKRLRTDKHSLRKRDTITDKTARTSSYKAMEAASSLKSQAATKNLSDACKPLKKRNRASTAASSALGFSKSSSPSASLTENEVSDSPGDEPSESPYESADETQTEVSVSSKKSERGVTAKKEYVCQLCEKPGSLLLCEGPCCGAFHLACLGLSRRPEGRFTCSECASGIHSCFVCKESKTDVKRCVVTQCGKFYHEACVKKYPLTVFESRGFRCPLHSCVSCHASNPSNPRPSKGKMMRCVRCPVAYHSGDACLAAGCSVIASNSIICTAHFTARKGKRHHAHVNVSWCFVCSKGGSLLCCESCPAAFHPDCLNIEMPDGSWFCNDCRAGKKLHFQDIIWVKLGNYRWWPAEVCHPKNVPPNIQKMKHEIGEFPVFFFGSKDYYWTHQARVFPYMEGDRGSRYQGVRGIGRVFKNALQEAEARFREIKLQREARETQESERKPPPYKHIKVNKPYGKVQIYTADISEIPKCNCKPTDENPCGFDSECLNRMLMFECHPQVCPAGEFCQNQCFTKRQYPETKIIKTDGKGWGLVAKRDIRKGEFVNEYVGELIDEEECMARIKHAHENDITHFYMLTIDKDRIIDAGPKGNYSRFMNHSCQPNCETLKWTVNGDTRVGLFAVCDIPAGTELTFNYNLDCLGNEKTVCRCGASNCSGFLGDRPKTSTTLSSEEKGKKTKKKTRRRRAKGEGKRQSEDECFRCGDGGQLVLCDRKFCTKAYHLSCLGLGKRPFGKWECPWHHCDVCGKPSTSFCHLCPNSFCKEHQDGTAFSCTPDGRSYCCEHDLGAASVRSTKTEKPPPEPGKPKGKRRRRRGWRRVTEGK

[26] = cells; format: functional, cell-based
[27] = cells; format: functional, cell-based; remark: listed apart in the source
[28] = enhancers of respiration in Yfh1-depleted yeast, dose response, Friedreich's ataxia, plus single-dose screen (AID 1465); format: functional;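 note: yeast depleted of Yfh1p frataxin homolog grown on glycerol needing respiration; WST-1 tetrazolium dye reduction as measure of cellular dehydrogenase metabolic activity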
[29] = biological target: Nonstructural protein 1 (Influenza A virus, UniProt Q194T2); format: functional, Influenza A virus (A/California/07/2009(H1N1))
Sequence of Nonstructural protein 1 (Q194T2 whole entry): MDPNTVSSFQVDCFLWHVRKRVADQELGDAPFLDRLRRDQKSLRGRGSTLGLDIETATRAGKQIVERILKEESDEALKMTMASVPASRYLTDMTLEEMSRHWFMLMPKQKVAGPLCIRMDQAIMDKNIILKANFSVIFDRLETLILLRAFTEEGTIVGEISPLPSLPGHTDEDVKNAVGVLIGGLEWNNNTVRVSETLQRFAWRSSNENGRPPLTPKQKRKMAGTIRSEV

Sequence of Mucolipin-3 (Q8TDD5 whole entry): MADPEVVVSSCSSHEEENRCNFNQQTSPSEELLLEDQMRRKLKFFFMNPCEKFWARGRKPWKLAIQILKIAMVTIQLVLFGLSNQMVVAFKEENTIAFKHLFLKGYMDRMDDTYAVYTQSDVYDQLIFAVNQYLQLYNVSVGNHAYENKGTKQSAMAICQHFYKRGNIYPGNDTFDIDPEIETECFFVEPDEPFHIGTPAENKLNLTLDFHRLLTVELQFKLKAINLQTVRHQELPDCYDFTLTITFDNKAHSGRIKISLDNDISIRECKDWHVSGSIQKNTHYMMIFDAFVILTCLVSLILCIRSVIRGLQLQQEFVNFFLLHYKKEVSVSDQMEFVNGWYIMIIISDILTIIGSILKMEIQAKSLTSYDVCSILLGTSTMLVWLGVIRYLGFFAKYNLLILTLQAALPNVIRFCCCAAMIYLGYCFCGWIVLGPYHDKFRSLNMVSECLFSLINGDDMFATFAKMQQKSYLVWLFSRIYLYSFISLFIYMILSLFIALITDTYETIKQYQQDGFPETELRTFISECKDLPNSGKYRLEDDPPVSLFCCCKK

## CC(c1ccccc1)N(NC(=O)C(O)(c1ccccc1)c1ccccc1)C(=O)c1ccccc1 (centres undefined)
[1]
  EC50: > 29.9 µM (not active)
[2]
  EC50: 13.9 µM (active)
[3]
  EC50: 11.3 µM (active)
[4]
  EC50: > 29.9 µM (not active)

## O=C1c2ccccc2CC1Sc1nnc(-c2ccncc2)o1 (centres undefined)
[5]
  IC50: > 100 µM (active)
[6]
  AC50: 268 µM (active)

## COc1ccc(NC(=O)C2C3CCC(O3)C2C(=O)O)c(OC)c1 (centres undefined)
[7]
  IC50: 4.95 µM (active)
[8]
  IC50: 4.79 µM (active)

## Nc1[nH]nc2ncc3cc4ccccc4nc3c12
[9]
  EC50: 11.9 µM (active)
[10]
  IC50: 7.35 µM (active)
[11]
  IC50: > 20 µM (inactive)
[12]
  EC50: 3.74 µM (active)
[13]
  IC50: 8.23 µM (active)

## Cc1cccc(C)c1OCC(O)CNC(C)(C)C (centres undefined)
[14]
  EC50: 17.9 µM (not active)
[15]
  EC50: > 35.4 µM (not active)
[16]
  EC50: > 35.4 µM (not active)
[17]
  AC50: 8.91 µM (inconclusive)

## COC(=O)C1=C(C(=O)OC)SC2(S1)C(C(=O)OC)=C(C(=O)OC)SC1=C2c2cccc(C)c2NC1(C)C
[18]
  IC50: > 35 µM (not active)
[19]
  IC50: > 35 µM (not active)
[20]
  IC50: 3.83 µM (active)
[21]
  IC50: > 64.6 µM (inactive)

## CSc1nnc2c(n1)OC(c1ccsc1)N(C(C)=O)c1ccccc1-2 (centres undefined)
[22]
  EC50: 22.6 µM (not active)

## CN1c2cccc3cccc(c23)N(C)C1(C)C
[23]
  IC50: > 50 µM (not active)
[24]
  IC50: > 50 µM (not active)
[25]
  AC50: 11.4 µM (active)

## COc1ccc(O)c(/C=N/NC(=S)Nc2cccc(S(=O)(=O)N(C)C)c2)c1
[26]
  EC50: 10.8 µM (active)
[27]
  EC50: > 350 µM (not active)
[28]
  EC50: > 100 µM (active)
[29]
  IC50: 8.98 µM (active)
